SMILES strings stand for the structures. Read-outs that look alike come from different tables or passages of the source.

Test [1] has as its target T1, α1a-adrenoceptor (recombinant) (Homo sapiens, UniProt P35348).
T1 construct: expressed in transfected cells
T1 sequence (P35348 1-466): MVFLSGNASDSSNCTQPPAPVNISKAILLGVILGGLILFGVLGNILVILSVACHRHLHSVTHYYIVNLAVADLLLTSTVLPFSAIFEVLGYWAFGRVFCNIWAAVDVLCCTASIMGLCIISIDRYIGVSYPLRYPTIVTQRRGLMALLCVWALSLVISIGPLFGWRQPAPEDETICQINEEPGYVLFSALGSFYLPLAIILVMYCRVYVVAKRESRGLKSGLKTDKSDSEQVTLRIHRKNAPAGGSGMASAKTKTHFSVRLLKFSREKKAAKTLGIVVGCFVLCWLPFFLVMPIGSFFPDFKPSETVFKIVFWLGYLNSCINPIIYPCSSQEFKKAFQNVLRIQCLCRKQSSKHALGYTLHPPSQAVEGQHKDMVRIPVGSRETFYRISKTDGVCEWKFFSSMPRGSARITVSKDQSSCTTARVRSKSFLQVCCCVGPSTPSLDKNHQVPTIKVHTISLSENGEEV
Put plainly: Radioligand binding, cloned α1a-adrenoceptor ([3H]prazosin). The settings on record: read-out: Affinity for recombinant α1a-adrenoceptor, cloned receptors (Ki). How it is done:
(§1) Determination of affinity for cloned subtypes of α1-adrenoceptor subtypes was performed in membranes from cells transfected by electroporation with DNA expressing the genes encoding each α1-adrenoceptor subtype.
(§2) Non-specific binding was determined in the presence of 10 μM phentolamine.
(§3) Incubation was stopped by addition of ice-cold Tris buffer and rapid filtration through 0.2% polyethyleneimine-pretreated Schleicher & Schuell GF52 filters.
(§4) Data were expressed as mean Ki.

Test [2] has as its system diastolic blood pressure. Put plainly: Lowering of diastolic blood pressure in anaesthetised dogs after i.v. administration. Format: in vivo, dog. As to the method:
(§5) The experiments were performed according to the method of Imagawa J. et al., J. Pharmacol. Methods 22: 103-111, 1989, with substantial modifications, as follows: adult male beagle dogs, weighing 8-10 kg, were anaesthetised with pentobarbital sodium (30 mg/kg i.v. and 2 mg/kg/h i.v.), intubated and spontaneously ventilated with room air. In order to monitor systemic blood pressure (BP), a polyethylene (PE) catheter was introduced into the aortic arch through the left femoral artery. A collateral of the left femoral vein was cannulated for infusion of anaesthetic, and the right femoral vein was cannulated for administration of compounds. For intra-arterial (i.a.) injection of noradrenaline (NA), a PE catheter was introduced into the lower portion of the abdominal aorta via the right external iliac artery. Through such procedure, NA was selectively distributed to the lower urinary tract. A paramedian vertical suprapubic incision extending from the base of the pelvis to the mid-abdominal region was made and the bladder and prostate were exposed. The bladder was manually emptied with a syringe. Prostatic urethral pressure was monitored with a Mikro-tip catheter (5F) introduced into the bladder via the external urethral meatus, and withdrawn until the pressure transducer was positioned in the prostatic region of the urethra. A ligature was secured between the neck of the bladder and urethra to isolate the response of the latter and to avoid any interaction with the bladder. Another ligature was put around the Mikro-tip catheter at the external meatus, to secure the catheter itself. After a stabilising period following the surgical procedure (30 minutes), in which arterial and prostatic urethral pressure were continuously monitored as basal values, i.a. administration of NA was made at intervals of 20 minutes. The doses of NA chosen were such to produce an increase of at least 100% in urethral pressure. The test compounds were administered i.v. in a cumulative manner with intervals of 15-20 minutes between administrations. I.a. injections of NA were repeated 5 minutes after every dosing of test compound with intervals of about 10 minutes between stimulations. In order to compare the effects of the administered compound, dose/response curves (log dose transformation) were constructed by computing, at the peak effect, the percent decrease in diastolic blood pressure and the percent inhibition of the increase in urethral pressure induced by NA.

Test [3] relates to prostatic urethral pressure increase induced by noradrenaline. The experiment in a line: Inhibition of urethral contractions induced by noradrenaline in anaesthetised dogs after i.v. administration. Format: in vivo, dog. The settings on record: for UC ID50: active dose inhibiting by 50% the urethral contractions induced by noradrenaline: i.v. administration; for DBP/UC ratio between the active doses: i.v., DBP ED25 / UC ID50. How it is done:
as §5

Test [4] addresses T2, 5HT1A-serotoninergic receptor (Homo sapiens, UniProt P08908).
T2 sequence (P08908 1-422): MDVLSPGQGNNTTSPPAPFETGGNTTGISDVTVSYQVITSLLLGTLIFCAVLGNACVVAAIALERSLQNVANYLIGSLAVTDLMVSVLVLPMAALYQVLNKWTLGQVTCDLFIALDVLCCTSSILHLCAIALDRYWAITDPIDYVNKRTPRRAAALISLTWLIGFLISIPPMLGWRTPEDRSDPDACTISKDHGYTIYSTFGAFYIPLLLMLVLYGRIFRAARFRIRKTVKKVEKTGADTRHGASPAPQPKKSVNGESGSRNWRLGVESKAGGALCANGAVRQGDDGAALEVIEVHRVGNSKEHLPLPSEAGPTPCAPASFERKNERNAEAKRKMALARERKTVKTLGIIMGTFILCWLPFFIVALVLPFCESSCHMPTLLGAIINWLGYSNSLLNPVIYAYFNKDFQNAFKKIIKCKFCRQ
The experiment in a line: Radioligand binding, cloned 5-HT1A-serotoninergic receptor in HeLa membranes ([3H]8-OH-DPAT). The settings on record: cloned human 5-HT1A receptor in HeLa membranes, mean Ki, read-out: Affinity for 5-HT1A receptor, cloned receptors (Ki). Also on record: expressed in transfected cells; host or cells: HeLa. How it is done: HeLa cells were grown as monolayers in Dulbecco's Modified Eagle medium (DMEM) supplemented with 10% foetal calf serum and gentamicin (100 μg/mL), 5% CO2, at 37° C. The cells were detached from the growth flask at 95% confluence by a cell scraper and were lysed in ice-cold Tris-5-mM and EDTA-5-mM buffer (pH 7.4). The homogenates were centrifuged at 40000×g×20 minutes and the membranes were resuspended in a small volume of ice-cold buffer containing Tris 5 mM and EDTA 5 mM (pH 7.4), and immediately frozen and stored at −70° C. until use.
Non-specific binding was determined in the presence of 10 μM 5-HT. The incubation was stopped by addition of ice-cold Tris buffer and rapid filtration through 0.2% polyethyleneimine-pretreated Schleicher & Schuell filters.
as §4

The target of test [5] is T3, α1d-adrenoceptor (recombinant) (Homo sapiens, UniProt P25100).
T3 sequence (P25100 1-572): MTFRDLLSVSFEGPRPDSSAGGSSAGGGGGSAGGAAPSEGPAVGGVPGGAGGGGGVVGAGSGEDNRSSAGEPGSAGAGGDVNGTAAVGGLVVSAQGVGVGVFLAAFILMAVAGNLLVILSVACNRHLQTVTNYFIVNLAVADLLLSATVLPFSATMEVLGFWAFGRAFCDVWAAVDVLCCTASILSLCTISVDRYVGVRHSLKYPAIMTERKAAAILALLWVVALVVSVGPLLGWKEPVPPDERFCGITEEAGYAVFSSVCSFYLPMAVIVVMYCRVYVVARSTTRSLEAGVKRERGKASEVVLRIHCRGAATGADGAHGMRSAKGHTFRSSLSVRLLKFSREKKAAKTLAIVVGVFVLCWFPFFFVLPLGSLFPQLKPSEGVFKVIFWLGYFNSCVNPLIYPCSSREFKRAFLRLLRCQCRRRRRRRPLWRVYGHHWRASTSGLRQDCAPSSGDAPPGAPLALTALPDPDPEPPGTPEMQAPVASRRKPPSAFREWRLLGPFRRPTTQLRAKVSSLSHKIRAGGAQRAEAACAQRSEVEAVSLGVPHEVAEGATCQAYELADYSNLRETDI
The experiment in a line: Radioligand binding, cloned α1d-adrenoceptor ([3H]prazosin). To be noted: read-out: Affinity for recombinant α1d-adrenoceptor, cloned receptors (Ki). How it is done:
as §1, §2, §3, §4

Test [6] concerns the target T4, α1b-adrenoceptor (recombinant) (Homo sapiens, UniProt P35368).
T4 construct: expressed in transfected cells
T4 sequence (P35368 1-520): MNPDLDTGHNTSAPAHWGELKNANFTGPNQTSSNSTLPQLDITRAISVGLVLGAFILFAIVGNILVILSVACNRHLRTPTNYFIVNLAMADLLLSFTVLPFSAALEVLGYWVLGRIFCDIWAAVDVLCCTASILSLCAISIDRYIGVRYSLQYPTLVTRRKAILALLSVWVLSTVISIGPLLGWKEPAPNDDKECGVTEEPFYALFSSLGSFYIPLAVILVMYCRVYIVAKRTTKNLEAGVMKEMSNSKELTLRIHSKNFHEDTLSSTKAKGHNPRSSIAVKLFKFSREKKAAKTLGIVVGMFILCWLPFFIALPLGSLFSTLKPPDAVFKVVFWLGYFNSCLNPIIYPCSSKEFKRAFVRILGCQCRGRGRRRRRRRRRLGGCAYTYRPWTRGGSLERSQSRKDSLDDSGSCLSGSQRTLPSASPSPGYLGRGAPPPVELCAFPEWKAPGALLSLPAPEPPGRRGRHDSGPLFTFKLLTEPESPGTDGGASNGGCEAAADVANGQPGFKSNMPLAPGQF
The experiment in a line: Radioligand binding, cloned α1b-adrenoceptor ([3H]prazosin). To be noted: read-out: Affinity for recombinant α1b-adrenoceptor, cloned receptors (Ki). As to the method:
as §1, §2, §3, §4

Test [7] has as its system diastolic blood pressure. The settings on record: anaesthetised dogs, i.v.; data from Leonardi et al. 1997; cited from earlier work.
For test [8], the system named is prostatic urethral pressure increase induced by noradrenaline. The settings on record: anaesthetised dogs, i.v.; data from Leonardi et al. 1997; cited from earlier work.
The target in test [9] is T2, 5HT1A-serotoninergic receptor. To be noted: background statement; cited from earlier work.
The next test concerns α1-adrenergic receptor. The settings on record: background statement; cited from earlier work.

The term Ki denotes a dissociation constant, usually derived from enzyme kinetics or from competition with a known ligand. For the compound `Cc1c(-c2ccccc2)oc2c(C(=O)NCCCN3CCN(c4ccccc4OCC(F)(F)F)CC3)cccc2c1=O` [Example 15, 8-<3-{4-[2-(2,2,2-Trifluoroethoxy)phenyl]-1-piperazinyl}propylcarbamoyl>-3-methyl-4-oxo-2-phenyl-4H-1-benzopyran], the inhibition constant (Ki) in test [1] came out at 0.07 nM; in [4], 0.71 nM; in [5] it was 3.38 nM; in test [6], 6 nM. Also, the “DBP ED25: active dose lowering diastolic blood pressure by 25%” value in the test on diastolic blood pressure [2] worked out at 3.001 mg/kg. In test [3], the “UC ID50: active dose inhibiting by 50% the urethral contractions induced by noradrenaline” value came out at 0.0049 mg/kg.

For `COc1ccc(C#N)cc1N1CCN(CCCNC(=O)c2cccc3c(=O)c(C)c(-c4ccccc4)oc23)CC1` [Example 18, 8-{3-[4-(5-Cyano-2-methoxyphenyl)-1-piperazinyl]propylcarbamoyl}-3-methyl-4-oxo-2-phenyl-4H-1-benzopyran], the Ki in [1] came out at 4.18 nM; in [4], 677 nM; in test [5], 45.4 nM; in [6] it was 100 nM. Further, the “DBP ED25: active dose lowering diastolic blood pressure by 25%” value in the test on diastolic blood pressure [2] is 1.2976 mg/kg. In test [3], the “UC ID50: active dose inhibiting by 50% the urethral contractions induced by noradrenaline” value was found to be 0.0341 mg/kg. Moreover, the “DBP/UC ratio between the active doses” value in test [3] amounted to 38.05.

Turning to `Cc1c(-c2ccccc2)oc2c(C(=O)NCCCN3CCN(c4cc(Cl)ccc4OCC(F)(F)F)CC3)cccc2c1=O` [Example 22, 8-<3-{4-[5-Chloro-2-(2,2,2-trifluoroethoxy)phenyl]-1-piperazinyl}-propylcarbamoyl>-3-methyl-4-oxo-2-phenyl-4H-1-benzopyran], the results for the Ki in [1], in [5] and in test [6] were 0.25 nM, 3.07 nM and 1.9 nM, respectively. For the same compound, the “DBP ED25: active dose lowering diastolic blood pressure by 25%” value in the test with diastolic blood pressure [2] is 1.266 mg/kg. For the same compound, the “UC ID50: active dose inhibiting by 50% the urethral contractions induced by noradrenaline” value in test [3] was determined as 0.0195 mg/kg. Also, the “DBP/UC ratio between the active doses” value in test [3] is 64.92.

Consider `COc1ccccc1N1CCN(CCCNC(=O)c2cccc3c(=O)c(C)c(-c4ccccc4)oc23)CC1` [Compound A], for which, in the test with diastolic blood pressure [7], the “DBP ED25: active dose lowering diastolic blood pressure by 25%” value was 0.243 mg/kg. Also, the “UC ID50: active dose inhibiting by 50% the urethral contractions induced by noradrenaline” value in test [8] is 0.0024 mg/kg.

On to `CCOc1ccccc1OCCN[C@H](C)Cc1ccc(OC)c(S(N)(=O)=O)c1` [tamsulosin], for which the “Affinity for the 5HT1A-serotoninergic receptor” value in test [9] was “comparable affinity”.

Regarding `Cc1c(-c2ccccc2)oc2c(C(=O)OCCN3CCCCC3)cccc2c1=O` [Flavoxate, 3-methyl-4-oxo-2-phenyl-8-(2,N-piperidinylethoxycarbonyl)-4H-1-benzopyran], the “Affinity for the α1-adrenergic receptor” value in the test with α1-adrenergic receptor was “practically devoid of affinity”. In test [9], the “Affinity for the 5HT1A-serotoninergic receptor” value is listed as “practically devoid of affinity”.
